Measured values as given in patent US20040029172A1, “Generation of combinatorial libraries and assessment thereof by deconvolution” (priority 2000, published 2004).

Molecular target: Concanavalin A (Canavalia ensiformis, UniProt P02866)
Details: FIG. 5; complete library 2:1-6 and 2:A-I
Description: Concanavalin A and all reagents were obtained from common commercial sources (Lancaster, Fluka, Aldrich, Bachem, Sigma). […] The binding effect of the equilibrated mixtures was determined using competitive inhibition of enzyme-labelled concanavalin A, and were carried out using a Victor microtiter plate reader.
The complete library (CL) was designed to contain near equal amounts of each final species at a concentration of approximately 12 μM. The final solution contained 2.5 mM of each carbohydrate aldehyde (2:1-6), and varying amounts of hydrazides: 2:A, 70 μM; 2:B-E, 0.24 mM; 2:F, 0.42 mM; 2:G, 0.65 mM; 2:H, 0.88 mM; 2:I, 2.5 mM. The mixture was made in ammonium formate buffer at pH 4.0, and was equilibrated at ambient temperature for one week to ensure full reaction.
The different sublibraries (SL1-SLI) were prepared under identical conditions, where one component (2:1-6, 2:A-I) was removed from the mixture each time. Aliquots of the solution were subsequently taken out to test the inhibitory activity on Concanavalin A.

Compound: O=Cc1ccc(OC2OC(CO)C(O)C(O)C2O)cc1 (stereo not shown) [2:6]
- effect on Con A binding when the component is removed from the complete library: largest effects
